Results published in paper PMC7827085 (Pharmaceutics, 2021).
Where a chain is given by its changes, count along the chain named.

Tests used:
ABCB1/Pgp = target: T1, ABCB1/Pgp (Homo sapiens, UniProt P08183); experiment: ABCB1-ATPase activity in Sf9 membrane vesicles; assay type: biochemical
T1 construct: made in house; host or cells: Sf9 insect cells
Procedure: ABC transporter ATPase activity was measured in Sf9 membrane vesicles containing the respective human ABC transporters. For ABCG2/BCRP, the cholesterol level in the vesicles was increased to the level of mammalian cell membranes for full activity. For ABCB1/Pgp 20 μg/150 μL and for ABCG2/BCRP 10 μg/150 μL, vesicles were incubated with 3 mM Mg-ATP for 25 min at 37 °C. The test drugs were dissolved in DMSO and 1 µL was added to the samples. The ABC transporter-related ATPase activity was determined and reference activators (50 µM verapamil for ABCB1 and 5 µM quercetin for ABCG2) served as controls.
Drug-stimulated ATPase activity of the ABCB1 transporter is a well-documented functional assay employed to estimate the substrate or inhibitory features of various drugs. […] In this assay, most transported substrates show a biphasic curve: Low concentrations stimulate, while higher concentrations inhibit, the ATPase activity. In these experiments, we measured the vanadate-sensitive (ABC transporter-related) ABCB1-ATPase activity in membrane vesicles isolated from ABCB1 overexpressing Sf9 cells.

wild-type ABCG2 = target: T2, wild-type ABCG2 (Homo sapiens, UniProt Q9UNQ0); experiment: Hoechst 33342 dye extrusion in HeLa cells expressing wild-type ABCG2; assay type: cell-based; settings: wild-type ABCG2, 0.2 µM Hoechst 33342, full inhibition by 1 µM Ko143
T2 construct: expressed in transfected cells; host or cells: HeLa (Sleeping Beauty transposon system)
T2 sequence (Q9UNQ0 1-655): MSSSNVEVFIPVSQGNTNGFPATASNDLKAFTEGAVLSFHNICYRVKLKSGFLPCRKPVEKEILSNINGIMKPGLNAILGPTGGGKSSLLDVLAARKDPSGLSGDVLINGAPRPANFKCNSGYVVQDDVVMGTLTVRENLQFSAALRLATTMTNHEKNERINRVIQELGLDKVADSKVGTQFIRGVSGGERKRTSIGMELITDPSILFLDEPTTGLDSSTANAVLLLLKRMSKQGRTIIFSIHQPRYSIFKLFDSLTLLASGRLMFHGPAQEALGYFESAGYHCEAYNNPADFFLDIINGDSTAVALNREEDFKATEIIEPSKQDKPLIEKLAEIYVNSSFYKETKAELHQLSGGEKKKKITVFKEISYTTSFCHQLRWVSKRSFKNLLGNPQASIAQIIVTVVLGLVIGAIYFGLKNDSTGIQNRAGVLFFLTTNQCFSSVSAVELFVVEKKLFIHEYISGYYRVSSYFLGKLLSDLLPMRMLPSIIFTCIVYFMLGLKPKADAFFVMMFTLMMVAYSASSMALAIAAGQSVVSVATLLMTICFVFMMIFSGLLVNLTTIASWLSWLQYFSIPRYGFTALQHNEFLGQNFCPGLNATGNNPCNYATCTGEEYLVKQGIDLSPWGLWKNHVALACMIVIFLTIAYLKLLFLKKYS

Q141K-ABCG2 variant = target: T3, Q141K-ABCG2 variant (Homo sapiens, UniProt Q9UNQ0, Q141K); experiment: Hoechst 33342 dye extrusion in HeLa cells expressing Q141K-ABCG2; assay type: cell-based; settings: Q141K-ABCG2 variant vs WT
T3 construct: expressed in transfected cells; host or cells: HeLa (Sleeping Beauty transposon system)
T3 sequence (Q9UNQ0 1-655 Q141K): T2 sequence (Q9UNQ0 1-655) with Q141K

ABCC1/MRP1 = ABCC1/MRP1 (Homo sapiens, UniProt P33527); experiment: in vitro
OATP1A2 = target: T4, OATP1A2 (Homo sapiens, UniProt P46721); experiment: cell-based
T4 sequence (P46721 1-670): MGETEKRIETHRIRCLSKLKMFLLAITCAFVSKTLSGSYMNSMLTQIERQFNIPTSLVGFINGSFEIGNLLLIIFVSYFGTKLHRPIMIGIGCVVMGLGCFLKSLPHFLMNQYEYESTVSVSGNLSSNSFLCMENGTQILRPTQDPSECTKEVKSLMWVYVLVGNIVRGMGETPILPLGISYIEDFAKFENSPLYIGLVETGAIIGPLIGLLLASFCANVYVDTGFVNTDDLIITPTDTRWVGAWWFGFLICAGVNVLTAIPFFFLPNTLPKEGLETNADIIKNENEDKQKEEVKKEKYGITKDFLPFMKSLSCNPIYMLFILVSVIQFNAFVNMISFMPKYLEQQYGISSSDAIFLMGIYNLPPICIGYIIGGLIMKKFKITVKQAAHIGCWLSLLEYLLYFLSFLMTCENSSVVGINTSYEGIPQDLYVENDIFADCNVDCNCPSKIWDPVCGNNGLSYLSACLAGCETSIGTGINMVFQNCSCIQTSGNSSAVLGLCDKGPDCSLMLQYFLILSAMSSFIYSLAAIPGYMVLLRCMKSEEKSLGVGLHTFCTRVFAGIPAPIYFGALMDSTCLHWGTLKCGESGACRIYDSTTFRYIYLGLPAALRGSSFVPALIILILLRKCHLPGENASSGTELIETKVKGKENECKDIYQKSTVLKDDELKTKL

OATP2B1 = target: T5, OATP2B1 (Homo sapiens, UniProt O94956); experiment: cell-based
T5 sequence (O94956 1-709): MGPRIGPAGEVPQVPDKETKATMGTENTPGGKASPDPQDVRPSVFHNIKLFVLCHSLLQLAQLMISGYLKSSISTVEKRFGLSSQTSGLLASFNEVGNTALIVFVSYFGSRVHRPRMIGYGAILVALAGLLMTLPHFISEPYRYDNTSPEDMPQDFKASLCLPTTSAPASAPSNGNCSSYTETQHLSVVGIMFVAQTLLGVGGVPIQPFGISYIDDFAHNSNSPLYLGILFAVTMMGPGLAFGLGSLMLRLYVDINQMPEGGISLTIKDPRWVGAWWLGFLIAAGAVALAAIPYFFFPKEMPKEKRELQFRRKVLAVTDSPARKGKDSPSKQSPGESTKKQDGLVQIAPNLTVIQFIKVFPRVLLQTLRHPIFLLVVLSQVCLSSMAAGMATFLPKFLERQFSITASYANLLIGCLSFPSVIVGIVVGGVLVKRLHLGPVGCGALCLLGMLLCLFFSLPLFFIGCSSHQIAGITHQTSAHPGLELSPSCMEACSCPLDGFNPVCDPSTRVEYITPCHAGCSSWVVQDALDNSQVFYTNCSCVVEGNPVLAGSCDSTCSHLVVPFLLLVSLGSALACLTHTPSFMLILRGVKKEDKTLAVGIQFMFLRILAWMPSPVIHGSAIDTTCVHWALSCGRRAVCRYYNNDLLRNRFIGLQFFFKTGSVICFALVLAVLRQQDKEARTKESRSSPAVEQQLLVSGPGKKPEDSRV

ABCG2/BCRP = target: T6, ABCG2/BCRP (Homo sapiens, UniProt Q9UNQ0); experiment: ABCG2-ATPase activity in Sf9 membrane vesicles; assay type: biochemical; set-up: expressed in transfected cells; host or cells: PLB-985; settings: Sf9/ABCG2 membranes; ivermectin, ritonavir, lopinavir at low micromolar, remdesivir at higher concentrations
T6 sequence (Q9UNQ0 1-655): T2 sequence (Q9UNQ0 1-655)
Procedure: ABC transporter ATPase activity was measured in Sf9 membrane vesicles containing the respective human ABC transporters [46, 47, 48, 49, 50]. For ABCG2/BCRP, the cholesterol level in the vesicles was increased to the level of mammalian cell membranes for full activity [49]. For ABCB1/Pgp 20 μg/150 μL and for ABCG2/BCRP 10 μg/150 μL, vesicles were incubated with 3 mM Mg-ATP for 25 min at 37 °C. The test drugs were dissolved in DMSO and 1 µL was added to the samples. The ABC transporter-related ATPase activity was determined and reference activators (50 µM verapamil for ABCB1 and 5 µM quercetin for ABCG2) served as controls.
Drug-stimulated ATPase activity of the ABCG2 transporter was also measured in the present study.

T1 sequence (P08183 whole entry): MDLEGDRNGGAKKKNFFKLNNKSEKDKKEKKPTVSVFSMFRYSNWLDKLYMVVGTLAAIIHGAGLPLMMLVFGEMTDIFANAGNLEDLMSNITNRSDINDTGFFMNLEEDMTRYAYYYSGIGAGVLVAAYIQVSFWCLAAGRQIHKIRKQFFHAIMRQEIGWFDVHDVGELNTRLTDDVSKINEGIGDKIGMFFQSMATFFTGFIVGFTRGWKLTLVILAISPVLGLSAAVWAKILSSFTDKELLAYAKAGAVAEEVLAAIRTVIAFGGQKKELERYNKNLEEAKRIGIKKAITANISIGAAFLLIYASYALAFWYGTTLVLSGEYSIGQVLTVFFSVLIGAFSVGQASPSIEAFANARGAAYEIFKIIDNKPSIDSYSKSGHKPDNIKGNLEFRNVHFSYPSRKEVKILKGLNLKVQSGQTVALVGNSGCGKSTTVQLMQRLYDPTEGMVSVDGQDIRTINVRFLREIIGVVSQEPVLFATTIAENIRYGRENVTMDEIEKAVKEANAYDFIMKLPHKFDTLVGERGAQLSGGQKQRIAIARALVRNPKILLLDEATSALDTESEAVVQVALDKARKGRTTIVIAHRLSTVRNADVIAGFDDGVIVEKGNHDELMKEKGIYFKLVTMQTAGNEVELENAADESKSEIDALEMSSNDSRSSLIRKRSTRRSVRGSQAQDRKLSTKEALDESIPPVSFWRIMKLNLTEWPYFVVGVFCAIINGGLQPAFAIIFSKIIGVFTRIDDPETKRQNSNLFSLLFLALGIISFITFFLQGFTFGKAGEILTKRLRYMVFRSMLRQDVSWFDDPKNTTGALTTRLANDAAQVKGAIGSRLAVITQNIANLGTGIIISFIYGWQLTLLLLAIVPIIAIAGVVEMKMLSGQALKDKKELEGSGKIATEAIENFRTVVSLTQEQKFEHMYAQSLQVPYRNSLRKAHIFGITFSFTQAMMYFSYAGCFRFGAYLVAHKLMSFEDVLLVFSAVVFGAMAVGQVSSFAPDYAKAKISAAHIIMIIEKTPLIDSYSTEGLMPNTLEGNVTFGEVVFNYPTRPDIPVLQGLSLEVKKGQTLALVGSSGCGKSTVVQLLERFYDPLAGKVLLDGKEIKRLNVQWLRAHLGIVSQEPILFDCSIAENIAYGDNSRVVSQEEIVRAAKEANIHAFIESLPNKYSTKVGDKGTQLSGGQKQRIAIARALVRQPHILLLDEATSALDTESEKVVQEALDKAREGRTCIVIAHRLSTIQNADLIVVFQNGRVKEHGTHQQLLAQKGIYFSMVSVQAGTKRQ
ABCC1/MRP1, sequence (P33527 whole entry): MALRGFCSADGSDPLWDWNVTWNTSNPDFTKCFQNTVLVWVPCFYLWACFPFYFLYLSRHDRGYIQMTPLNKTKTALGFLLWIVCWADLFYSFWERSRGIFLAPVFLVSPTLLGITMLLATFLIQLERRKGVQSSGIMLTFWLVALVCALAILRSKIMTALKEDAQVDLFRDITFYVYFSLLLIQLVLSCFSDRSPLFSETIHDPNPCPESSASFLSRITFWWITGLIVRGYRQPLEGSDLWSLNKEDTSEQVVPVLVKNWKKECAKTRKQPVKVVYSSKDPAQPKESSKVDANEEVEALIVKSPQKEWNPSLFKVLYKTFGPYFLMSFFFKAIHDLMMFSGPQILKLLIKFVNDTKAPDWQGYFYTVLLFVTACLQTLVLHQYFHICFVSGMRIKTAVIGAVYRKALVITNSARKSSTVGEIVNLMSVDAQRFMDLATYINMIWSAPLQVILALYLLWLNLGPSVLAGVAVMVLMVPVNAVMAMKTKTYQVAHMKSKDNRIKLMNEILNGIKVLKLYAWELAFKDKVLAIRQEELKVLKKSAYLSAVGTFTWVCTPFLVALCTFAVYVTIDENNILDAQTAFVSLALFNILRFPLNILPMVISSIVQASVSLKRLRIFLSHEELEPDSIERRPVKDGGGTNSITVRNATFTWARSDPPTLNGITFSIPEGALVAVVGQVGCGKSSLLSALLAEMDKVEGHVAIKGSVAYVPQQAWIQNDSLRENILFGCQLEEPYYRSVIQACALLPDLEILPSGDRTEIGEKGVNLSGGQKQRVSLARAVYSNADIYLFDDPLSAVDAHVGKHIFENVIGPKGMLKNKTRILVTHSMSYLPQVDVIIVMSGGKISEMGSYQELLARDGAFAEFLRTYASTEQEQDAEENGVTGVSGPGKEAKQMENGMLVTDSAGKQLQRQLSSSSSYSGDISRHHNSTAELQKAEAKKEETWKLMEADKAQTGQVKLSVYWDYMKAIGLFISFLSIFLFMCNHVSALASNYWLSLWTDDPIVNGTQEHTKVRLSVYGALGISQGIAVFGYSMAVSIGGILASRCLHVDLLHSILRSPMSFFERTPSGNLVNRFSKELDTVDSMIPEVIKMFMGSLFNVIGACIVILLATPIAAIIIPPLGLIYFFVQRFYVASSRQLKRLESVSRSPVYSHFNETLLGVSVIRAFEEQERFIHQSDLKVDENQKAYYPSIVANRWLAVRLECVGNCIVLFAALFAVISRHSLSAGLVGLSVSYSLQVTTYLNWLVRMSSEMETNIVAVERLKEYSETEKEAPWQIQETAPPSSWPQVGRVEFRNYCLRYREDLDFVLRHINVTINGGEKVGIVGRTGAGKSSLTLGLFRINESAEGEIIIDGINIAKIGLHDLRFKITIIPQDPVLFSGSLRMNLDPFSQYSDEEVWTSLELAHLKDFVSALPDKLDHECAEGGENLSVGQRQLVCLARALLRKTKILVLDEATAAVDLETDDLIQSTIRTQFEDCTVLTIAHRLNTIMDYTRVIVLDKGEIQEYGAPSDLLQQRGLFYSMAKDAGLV

What does the source list for `Cc1cccc(C)c1OCC(=O)N[C@@H](Cc1ccccc1)[C@@H](O)C[C@H](Cc1ccccc1)NC(=O)[C@H](C(C)C)N1CCCNC1=O` [lopinavir]?
Concentration of maximal ABCB1-ATPase stimulation (ABCB1/Pgp; Sf9/ABCB1 membranes): around 0.5 µM; Effect on ABCB1-ATPase activity (in words) (ABCB1/Pgp; Sf9/ABCB1 membranes, 50 µM verapamil as reference activator): significant ABCB1-ATPase stimulation; Effect on ABCB1-ATPase activity at higher concentrations (in words) (ABCB1/Pgp; at higher concentrations): inhibitory effects; Effect on Hst dye extrusion by ABCG2 in HeLa cells (in words) (wild-type ABCG2): inhibited; Inhibition of Hst dye extrusion in Q141K-ABCG2 HeLa cells compared with wild type (in words) (Q141K-ABCG2 variant): significantly stronger inhibition; inhibition at 3 min (ABCC1/MRP1): 60%; IC50 (OATP1A2): 1.5 µM; IC50 (OATP2B1): 1 µM; Effect on baseline ABCG2-ATPase activity (in words) (ABCG2/BCRP): significantly inhibited
